Laboratory results reported in patent US20240277743A1, “RESTORING PHYSIOLOGY WITH SMALL MOLECULE MIMICS OF MISSING PROTEINS” (The Board of Trustees Of The University Of Illinois, priority 2014, published 2024).

Experiments:
Type in all cases: cell-based, Saccharomyces cerevisiae
wild type S. cerevisiae = assay: Growth of wild type cells treated with AmB
Description: Broth microdilution minimum inhibitory concentration (MIC) assay. The protocol for the MIC broth microdilution assay was adapted from the Clinical and Laboratory Standards Institute document M27-A2 and performed as previously described. Gray, K. C. et. al. Proc. Natl. Acad. Sci. U.S.A. 109, 2234-2239 (2012); Palacios, D. S. et al. J. Am. Chem. Soc. 129, 13804-13805 (2007).
Functional complementation of a protein with a small molecule assay. The protocol for the rescue broth microdilution assay was conducted as described in the MIC assay above with the following additions: trk1atrk2Δ yeast were grown in high potassium (100 mM) YPAD liquid media overnight and transferred to normal potassium YPAD liquid media containing vehicle or the indicated concentration of AmB.

trk1Δtrk2Δ cells = assay: Cell viability assay (propidium iodide staining); details: 125 nM AmB, 24 hours, FIG. 2H
Method: Cell viability assay. WT and trk1 Δtrk2Δ cells were inoculated in high potassium (100 mM KCl) YPAD. Starter cultures were grown at 30° ° C. for 14-15 hours. Cells were then cultured in high potassium YPAD at 30° ° C. for 2-2.5 hours. 100 μL of a 0.25 mg/mL propidium iodide (PI. Sigma-Aldrich P4864) solution was prepared. After 2-2.5 hours, cells were centrifuged at 800 g for 5 minutes, at 23° C. The supernatant was decanted, cells were resuspended in 40 mL of high potassium YPAD, vortexed, and centrifuged. The wash step was repeated. After pouring off the supernatant, cells were resuspended in 15 mL of high potassium YPAD, vortexed, and diluted to an OD600 of 0.5. To set one (WT, WT+PI, trk1Δtrk2Δ, and trk1Δtrk2Δ+PI) and set two (WT+PI+AmB, trk1 Δtrk2Δ+PI+AmB), 26.4 μL of DMSO were added to 1 mL aliquots of WT and trk1Δtrk2Δ, and incubated at 30° C. for 30 minutes. A 1% w/v low gelling temperature agarose (Sigma-Aldrich A9414) was prepared in normal potassium (10 mM) YPAD. When set one incubation completed, cells were pulse centrifuged, supernatant was removed, and resuspended in normal potassium YPAD to wash. […] The total number of PI stained cells was subtracted from the total cells recorded, and divided by total cells to give % viability. At least 200 cells were recorded per treatment group and 4 independent sets of data were obtained.

trk1Δtrk2Δ yeast = assay: Sustainable restoration of cell growth assay (max OD600, doubling time)
Method: Sustainable restoration of cell growth assay. Wild type and trk1 Δtrk2Δ yeast were treated as described in the functional complementation experiment described above, with the trk1 Δtrk2Δ yeast treated with 125 nM AmB. The OD600 was measured every hour for 24 hours, including a reading at time zero. Wild type yeast were then streaked onto normal potassium YPAD agar plates and AmB-rescued TrklAtrk2Δ yeast were streaked onto AmB-containing (0.125 μM) normal potassium YPAD agar plates. These agar plates were then incubated at 30° ° C. for about 48 hours. The same procedure was then repeated for over 42 days, measuring the max OD600 and doubling time every three days. Doubling time was determined using the following equation: Td=(t2−t1)×[log(2)/log (q2/q1)], where t2 and t1 represent the time at the two points and q2 and q1 represent the OD600 values in the exponential phase of growth (OD600 from 0.2 to 0.6).

[1] = test system: small molecule-rescued trk1Δtrk2Δ cells versus wild type; assay: Probing sensitivities to known chemical inhibitors assay; details: FIG. 3E legend
Method: Probing sensitivities to known chemical inhibitors assay. Overnight cultures were grown as described in the MIC assay. Prior to harvesting cells, small molecules AmB, nystatin A1 (Riedel-de-Haen), candicidin (TOKU-E), or mepartricin (Santa Cruz Biotechnology) and chemical inhibitors nocodazole (Sigma-Aldrich), ebselen (Cayman Chemical), or bafilomycin BI (Santa Cruz Biotechnology were prepared as stock solutions in DMSO. Saturated cell cultures were centrifuged for 5 minutes at 1000×g. The supernatant was poured off, and cells were resuspended in sterile MilliQ water. Cells were centrifuged again, and supernatant was poured off. The wash step was repeated. The supernatant was poured off, and cells were resuspended in normal potassium YPAD. Cells were diluted with normal potassium YPAD to an OD600 of 0.01. Next, an appropriate volume of AmB, nystatin A1, candicidin, or mepartricin was added to give a final rescuing concentration of 125 nM, 1000 nM, 8 nM, and 8 nM, respectively. A control was prepared by adding the corresponding volume of DMSO to trk1Δtrk2Δ cells. 195 μL of WT+small molecule, 195 μL of trk1Δtrk2Δ+small molecule, and 195 μL of trk1Δtrk2Δ+DMSO were added to a 96 well plate. Next, 5 μL of DMSO or chemical inhibitor was added to each well, with each concentration tested in triplicate for both WT and trk1Δtrk2Δ . The plate was covered and incubated at 30° C. for 24 hours. A BioTek Synergy H1 Hybrid Reader was used to measure the OD600. Utilizing GraphPad PRISM, data were fitted by nonlinear regression, inhibition dose response, variable slope (four parameters) to yield EC50 values with SEM. For statistical analysis, EC50 values from the two treatment groups were compared by unpaired t-test.

C[C@@H]1[C@H](O)[C@@H](C)/C=C/C=C/C=C/C=C/C=C/C=C/C=C/[C@H](O[C@@H]2O[C@H](C)[C@@H](O)[C@H](N)[C@@H]2O)C[C@@H]2O[C@](O)(C[C@@H](O)C[C@@H](O)[C@H](O)CC[C@@H](O)C[C@@H](O)CC(=O)O[C@H]1C)C[C@H](O)[C@H]2C(=O)O [AmB, amphotericin B]
growth stimulatory effects on wild type cells (wild type S. cerevisiae): no growth stimulatory effects | cell viability of AmB-rescued trk1Δtrk2Δ cells versus wild type (trk1Δtrk2Δ cells): Equivalent levels of cell viability | doubling time of AmB-rescued trk1Δtrk2Δ cells relative to wild type (trk1Δtrk2Δ yeast; 125 nM AmB): 1.7 times longer | sustainability of cell growth of AmB-rescued trk1Δtrk2Δ cells (trk1Δtrk2Δ yeast; 125 nM AmB, passed every 3 days for over a month, FIG. 2I): sustained, vigorous cell growth | maximum cell density (max OD600) of treated trk1Δtrk2Δ cells (trk1Δtrk2Δ yeast; liquid culture after 24 h, versus wild type, FIG. 2G): matched that of the wild type | optimum rescue concentration for trk1Δtrk2Δ cells [1]: 0.5 µM
